Literature values as cited in PMC9098912, “Molecular basis for inhibiting human glucose transporters by exofacial inhibitors” (Nature Communications, 2022).

What was measured:
[1] = system: GLUT3; set-up: method as in PMID 12792024; details: cited from earlier work
[2] = system: GLUT1; set-up: method as in Siebeneicher et al., 2016; details: SAR of Bayer compounds; ref Siebeneicher et al., 2016; cited from earlier work
[3] = system: GLUT1/3 over GLUT2; set-up: method as in Siebeneicher et al., 2016; details: ref Siebeneicher et al., 2016; cited from earlier work

SMILES | GLUT3 inhibition [1] | GLUT1 potency [2] | Selectivity [3]
C=CCCCCCCCCCO[C@H]1[C@H](O)[C@@H](CO)OC(O)[C@@H]1O (stereo partly drawn) [C3361] | weak inhibitor |  | 
COc1ccc(F)cc1N1CCN(c2ncnc3c2cnn3-c2ccccc2)CC1 [cmpd 15] |  | favors GLUT1 association | selective inhibition to GLUT1/3 over GLUT2
